Assay results: publication PMC6377692 (EJNMMI Research, 2019)
Several values for one entry are separate records, joined by “and”; a condition that tells them apart may be missing. Equal values may be shown once. Bridge positions count the residues as written; N and C are the ends. Square brackets hold non-standard residues; d marks the D form. Peptide text beside a SMILES is read from it. * marks the point of attachment. DO3A(CH2CH2SO2CH2CH2) = O=C(O)CN1CCN(CCS(=O)(=O)CC*)CCN(CC(=O)O)CCN(CC(=O)O)CC1; Ala(4-thiazolyl) = N[C@@H](Cc1cscn1)C(=O)O

Legend:
[1] = in vitro autoradiography, pancreas sections; assay type: binding, cynomolgus monkey (NHP); conditions: NHP pancreas, 5–10 nM tracer
Protocol: (§1) Liver and pancreas tissues were collected post-mortem from cynomolgus monkeys (NHP) and Sprague Dawley rats. The use of animal tissues collected post-mortem was approved by the Animal Research Ethical Committee of the Uppsala Region and was performed according to the Uppsala university guidelines on animal experimentation (UFV 2007/724).
(§2) Sections were added in duplicates in each individual assay, and each experiment was repeated at least three times with different batches of radioligand, except for rat sections that were only performed in one assay.
(§3) After incubation, the sections were washed three times in 150 mL PBS. Sections were carefully dried at 37 °C and then exposed against a digital phosphorimager plate overnight together with a 10-μl droplet of radioactive reference (cross-calibrated against a gamma counter) on an absorbent paper attached to an object glass. The phosphor imager plates were scanned using a Cyclone Plus Phosphor imager (Perkin Elmer) at 600 dpi, and the resulting autoradiograms analyzed by ImageJ software (NIH, Bethesda). Pixel values in counts/mm^2 were converted to Bq/mm^2 by the included reference. Bq/mm^2 was further converted to fmol/mm^2 by the known specific radioactivity (fmol/Bq) of each batch of radiopharmaceutical.

[2] = target: T1, human GCGR (HEK293 cells transfected with human GCGR) (Homo sapiens, UniProt P47871); assay: in vitro autoradiography, blocking on sections of frozen pellet of GCGR-transfected cells; assay type: binding; conditions: n = 3
T1 construct: expressed in transfected cells; host or cells: HEK293
T1 sequence (P47871 26-477): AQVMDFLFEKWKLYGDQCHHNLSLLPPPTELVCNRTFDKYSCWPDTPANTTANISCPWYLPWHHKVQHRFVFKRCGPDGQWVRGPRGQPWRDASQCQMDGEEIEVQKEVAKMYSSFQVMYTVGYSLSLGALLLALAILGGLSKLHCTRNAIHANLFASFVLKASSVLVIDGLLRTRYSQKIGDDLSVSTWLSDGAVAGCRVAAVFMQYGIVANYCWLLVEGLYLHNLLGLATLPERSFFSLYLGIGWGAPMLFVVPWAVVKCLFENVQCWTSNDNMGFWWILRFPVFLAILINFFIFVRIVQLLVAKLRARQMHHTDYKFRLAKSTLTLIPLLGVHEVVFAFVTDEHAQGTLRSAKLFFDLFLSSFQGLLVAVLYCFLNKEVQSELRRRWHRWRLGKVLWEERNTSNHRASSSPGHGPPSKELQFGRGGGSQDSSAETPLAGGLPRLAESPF
Protocol: as §2, §3

[3] = target: T2, GCGR in rat liver sections (Rattus norvegicus, UniProt P30082); assay: in vitro autoradiography, liver sections; assay type: binding, Sprague Dawley rat
T2 construct: from tissue; host or cells: frozen Sprague Dawley rat liver sections
T2 sequence (P30082 27-485): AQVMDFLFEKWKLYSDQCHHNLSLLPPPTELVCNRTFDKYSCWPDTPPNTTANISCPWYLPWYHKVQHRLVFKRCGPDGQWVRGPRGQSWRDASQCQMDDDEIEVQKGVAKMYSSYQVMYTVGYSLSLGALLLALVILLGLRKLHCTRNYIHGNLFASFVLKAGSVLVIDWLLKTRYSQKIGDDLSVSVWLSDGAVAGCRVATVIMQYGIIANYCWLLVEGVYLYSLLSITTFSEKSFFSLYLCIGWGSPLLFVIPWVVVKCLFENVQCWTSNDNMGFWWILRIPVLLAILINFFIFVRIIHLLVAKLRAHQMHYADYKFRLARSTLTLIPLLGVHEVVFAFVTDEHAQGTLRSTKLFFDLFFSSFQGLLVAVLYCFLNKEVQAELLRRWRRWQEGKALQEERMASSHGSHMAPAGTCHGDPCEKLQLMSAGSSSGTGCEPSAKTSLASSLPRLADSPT
Protocol: as §1, §2, §3

[4] = in vitro autoradiography, pancreas sections; assay type: binding, Sprague Dawley rat; conditions: rat pancreas, 5–10 nM tracer, n = 1
Protocol: as §1, §2, §3

[5] = rat in vivo distribution (ex vivo organ counting); set-up: species or system Sprague Dawley rats; conditions: male, Sprague Dawley, iv, total radioactivity, i.v.
Protocol: The in vivo distribution over time was performed to identify the optimal time point for an in vivo blocking study and to calculate the residence time for dosimetry (see detail below). Thus, measurement at more time points was prioritized over repetitions at individual time points.
The animals were kept at a constant temperature (25 °C) and humidity (50%) in a 12-h light-dark cycle. Food and water were provided ad libitum.
Each radiotracer was administered into the tail vein of conscious animals as a bolus in 0.5–0.6 mL of PBS (pH 7.4) as vehicle. […] Given the constraints of the specific radioactivity for each radioligand, the dosing was designed to minimize the given peptide mass (in order to stay below mass effect levels) while still yielding enough radioactive signal for well counter measurements.
At pre-determined post injection time points (5, 10, 20, 40, 60, 90, 120, and 180 min), two animals per each point were euthanized by CO2. Tissues were immediately extracted and weighed, and the radioactive content was measured in the well counter. […] The well counter readings were decay corrected to the time of injection and the mass of the extracted tissues and expressed as Bq/cc. […]

[6] = data not shown
GCG receptor = target: T3, GCG receptor (Rattus norvegicus, UniProt P30082); assay: rat in vivo competition with precursor peptide; set-up: species or system Sprague Dawley rats; conditions: 1 mg/kg unlabelled precursor
T3 construct: tissue Taconic, Denmark (animals); host or cells: organs of living Sprague Dawley rats (liver, spleen, bone marrow and others)
T3 sequence (P30082 27-485): as above
Protocol: (§4) A competition study with each respective radiotracer precursor peptide was performed to investigate in vivo selectivity in selected tissues (the blood, heart, lung, liver, pancreas, spleen, kidney, muscle, and bone marrow).
(§5) Animals in each group (n = 4 for each radioligand) were co-injected with 1 mg/kg of either unlabelled DO3A-S01-GCG or -DO3A-S02-GCG peptide to determine the fraction of binding in each tissue which was receptor mediated.
(§6) The time point of euthanasia for each radiotracer was determined based on liver-to-blood ratio obtained from the biodistribution study above, as well as the radionuclide half-life and known radiotracer precursor half-life in blood plasma. Tissue resection and analysis of radioactive uptake in each tissue (expressed as SUV) were performed and analyzed as described above.

[7] = rat in vivo competition with precursor peptide; set-up: species or system Sprague Dawley rats; conditions: male, Sprague Dawley, total radioactivity, tracer alone, 40 min (S01) or 60 min (S02) p.i., S02 baseline stated for liver and spleen, read-out: baseline binding in the liver
Protocol: as §4, §5, §6

[8] = target: T4, GCGR in human liver sections (Homo sapiens, UniProt P47871); assay: in vitro autoradiography, liver sections; assay type: binding
T4 construct: tissue Uppsala Biobank (sample collection 827); host or cells: frozen human liver sections
T4 sequence (P47871 26-477): as the sequence (P47871 26-477) above
Protocol: Biopsies from donor human liver and pancreas were obtained from Uppsala Biobank (sample collection 827), and their use was approved by local ethical review board (EPN 2015/401).
as §2, §3

For `CC[C@H](C)[C@H](NC(=O)[C@H](Cc1ccccc1)NC(=O)[C@H](CCC(=O)O)NC(=O)[C@@H]1CCCCNC(=O)CC[C@H](NC(=O)[C@H](CC(=O)O)NC(=O)[C@H](CC(C)C)NC(=O)[C@H](CCC(N)=O)NC(=O)[C@H](CCCCN)NC(=O)[C@H](CO)NC(=O)[C@H](Cc2ccc(O)cc2)NC(=O)[C@H](CC(=O)O)NC(=O)[C@H](CO)NC(=O)[C@@H](NC(=O)[C@H](Cc2ccccc2)NC(=O)[C@@H](NC(=O)CNC(=O)[C@H](CCC(N)=O)NC(=O)[C@@H](CO)NC(=O)[C@@H](N)Cc2cscn2)[C@@H](C)O)[C@@H](C)O)C(=O)N[C@@H](CCC(N)=O)C(=O)N[C@@H](CCCNC(=N)N)C(=O)N[C@@H](C)C(=O)N1)C(=O)N[C@@H](CCC(=O)O)C(=O)N[C@@H](Cc1c[nH]c2ccccc12)C(=O)N[C@@H](CC(C)C)C(=O)N[C@@H](CC(C)C)C(=O)N[C@@H](C)C(=O)N[C@H](C(=O)NCC(=O)N1CCC[C@H]1C(=O)N[C@@H](CCC(=O)O)C(=O)N[C@@H](CO)C(=O)NCC(=O)N[C@@H](C)C(=O)N1CCC[C@H]1C(=O)N1CCC[C@H]1C(=O)N1CCC[C@H]1C(=O)N[C@@H](CO)C(=O)N[C@@H](CSCCS(=O)(=O)CCN1CCN(CC(=O)O)CCN(CC(=O)O)CCN(CC(=O)O)CC1)C(N)=O)[C@@H](C)O` [[^68Ga]Ga-DO3A-S01-GCG, metal not drawn] (H-[Ala(4-thiazolyl)][dS]QGTFTSDYSKQLDEQRAKEFIEWLLATGPESGAPPPSC(DO3A(CH2CH2SO2CH2CH2))-NH2; lactam 16-20), the “binding in pancreas sections” value [1] was “Only background binding”, the “effect of co-incubation with GCG on binding to sections of GCGR-transfected cell pellet” value ([2]; 10 μM GCG) was “completely abolished” and the “effect of co-incubation with own precursor peptide on binding to sections of GCGR-transfected cell pellet” value ([2]; 10 μM precursor) was “completely abolished”. The “effect of GLP-1 in excess on tracer binding to liver sections” value ([3]; 1 μM GLP-1, n = 1) was “did not induce inhibition”, the “inhibition of tracer binding to liver sections by co-incubation with own precursor peptide” value ([3]; 10 μM precursor, n = 1) was “did not increase the degree of inhibition” and the “binding in pancreas sections” value [4] was “Only background binding”. For the same compound, the SUV ([5]; liver, 3.6 ug/kg, after 20 min, read-out: uptake in the liver, plateau) was 3 SUV, the tissue to tissue ratio ([5]; liver/blood, after 90 min) was > 30 and the exposure [6] was 1570 ng·h/mL. For the same compound, the “plasma t½” value [6] was 15 min, the “decrease of binding in the spleen by co-injection of precursor peptide” value (GCG receptor; 40 min (S01) or 60 min (S02) p.i., n = 4 per group) was > 80% and the “decrease of binding in the liver by co-injection of precursor peptide” value (GCG receptor; 40 min (S01) or 60 min (S02) p.i., n = 4 per group, 1 mg/kg) was > 80% and 84%. For the same compound, the “effect of co-injection of precursor peptide on kidney uptake” value (GCG receptor; 40 min p.i.) was “not affected”, the “decrease of binding in the bone marrow by co-injection of precursor peptide” value (GCG receptor; 40 min p.i., n = 4 per group) was > 80% and the SUV [7] was > 2 SUV. For the same compound, the “effect of GLP-1 in excess on tracer binding to liver sections” value ([8]; 1 μM GLP-1, n = 3) was “did not induce inhibition” and the “inhibition of tracer binding to liver sections by co-incubation with own precursor peptide” value ([8]; 10 μM precursor, n = 3) was “did not increase the degree of inhibition”.
